Data published in patent US20070219186A1, “Pyrazolo[1,5-A]pyrimidine derivatives and methods of use thereof” (priority 2006, published 2007).
Read-outs that look alike come from different tables or passages of the source.

Target: T1, human B-Raf (Homo sapiens, UniProt P15056)
T1 construct: Flag; GST; made in house; host or cells: Sf9 insect cells (B-Raf); E. coli (MEK1-GST)
Assay: B-Raf Kinase to MEK1 ELISA
Assay type: biochemical
Details: for inhibition at 10 µM: read-out: % Inhib./10 uM
Summary of the method: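 Flag/GST-tagged human B-Raf (Sf9, ~20 ng/point) phosphorylates non-active GST-MEK1 (50 nM final) with ATP and MgCl2 in MOPS pH 7.2 buffer, 60 min at RT. Product is captured on anti-GST plates; MEK1 pSer217/221 is read by phospho-antibody plus europium conjugate (DELFIA).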

[1] = median, cpd concentrations from 10 μM to 30 nM in half log dilutions, read-out: Median IC50

T1 sequence (P15056 whole entry): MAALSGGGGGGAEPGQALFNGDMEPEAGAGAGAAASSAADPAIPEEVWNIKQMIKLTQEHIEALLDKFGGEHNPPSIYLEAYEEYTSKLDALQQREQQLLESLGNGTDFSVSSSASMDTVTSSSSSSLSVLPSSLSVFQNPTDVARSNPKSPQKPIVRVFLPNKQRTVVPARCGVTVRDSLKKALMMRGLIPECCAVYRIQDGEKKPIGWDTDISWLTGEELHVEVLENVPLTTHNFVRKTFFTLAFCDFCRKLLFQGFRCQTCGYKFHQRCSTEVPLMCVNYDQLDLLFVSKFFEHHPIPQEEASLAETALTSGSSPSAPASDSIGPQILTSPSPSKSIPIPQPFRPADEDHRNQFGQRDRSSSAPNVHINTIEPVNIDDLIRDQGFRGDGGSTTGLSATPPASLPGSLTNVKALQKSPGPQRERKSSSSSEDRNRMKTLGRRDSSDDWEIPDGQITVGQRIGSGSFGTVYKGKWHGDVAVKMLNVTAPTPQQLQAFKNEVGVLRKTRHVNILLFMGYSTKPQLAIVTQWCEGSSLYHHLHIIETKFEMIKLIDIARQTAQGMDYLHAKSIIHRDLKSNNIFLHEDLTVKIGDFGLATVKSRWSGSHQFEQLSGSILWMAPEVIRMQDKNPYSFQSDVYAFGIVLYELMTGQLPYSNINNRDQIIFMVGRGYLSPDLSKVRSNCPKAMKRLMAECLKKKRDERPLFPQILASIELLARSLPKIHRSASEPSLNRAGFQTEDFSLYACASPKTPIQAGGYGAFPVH

Structure (SMILES) | IC50 [1] [µM] | inhibition at 10 µM [%] | IC50 [µM] | inhibition at 10 µM (single point assay, 10 uM) [%]
CCOC(=O)c1cnn2c(-c3cccc(NC(=O)Nc4cc(OC)cc(C(F)(F)F)c4)c3)ccnc12 [Example 77, ethyl 7-{3-[({[3-methoxy-5-(trifluoromethyl)phenyl]amino}carbonyl)amino]phenyl}pyrazolo[1,5-a]pyrimidine-3-carboxylate] | 0.99 | 72 |  | 
CCOC(=O)c1cnn2c(-c3cccc(NC(=O)Nc4ccc(C#N)c(C(F)(F)F)c4)c3)ccnc12 [Example 78, ethyl 7-{3-[({[4-cyano-3-(trifluoromethyl)phenyl]amino}carbonyl)amino]phenyl}pyrazolo[1,5-a]pyrimidine-3-carboxylate] |  |  | 0.57 | 85
CCOC(=O)c1cnn2c(-c3cccc(NC(=O)Nc4ccc(C)c(C(F)(F)F)c4)c3)ccnc12 [Example 79, ethyl 7-{3-[({[4-methyl-3-(trifluoromethyl)phenyl]amino}carbonyl)amino]phenyl}pyrazolo[1,5-a]pyrimidine-3-carboxylate] | 0.37 | 88 |  | 
CCOC(=O)c1cnn2c(-c3cccc(NC(=O)Nc4cccc(Cl)c4)c3)ccnc12 [Example 80, Ethyl 7-[3-({[(3-chlorophenyl)amino]carbonyl}amino)phenyl]-pyrazolo[1,5-a]pyrimidine-3-carboxylate] |  | 47 |  | 
CCOC(=O)c1cnn2c(-c3cccc(NC(=O)Nc4ccc(OC)c(Cl)c4)c3)ccnc12 [Example 81, ethyl 7-[3-({[(3-chloro-4-methoxyphenyl)amino]carbonyl}amino)phenyl]pyrazolo[1,5-a]pyrimidine-3-carboxylate] | 6.15 | 50 |  | 
CCOC(=O)c1cnn2c(-c3cccc(NC(=O)Nc4ccc(C)c(Cl)c4)c3)ccnc12 [Example 82, ethyl 7-[3-({[(3-chloro-4-methylphenyl)amino]carbonyl}amino)phenyl]pyrazolo[1,5-a]pyrimidine-3-carboxylate] | 0.57 | 77 |  | 
CCOC(=O)c1cnn2c(-c3cccc(NC(=O)Nc4ccc(Br)c(Cl)c4)c3)ccnc12 [Example 83, ethyl 7-[3-({[(4-bromo-3-chlorophenyl)amino]carbonyl}amino)phenyl]pyrazolo[1,5-a]pyrimidine-3-carboxylate] | 0.6 | 71 |  | 
CCOC(=O)c1cnn2c(-c3cccc(NC(=O)Nc4ccc(N5CCOCC5)c(Cl)c4)c3)ccnc12 [Example 84, ethyl 7-[3-({[(3-chloro-4-morpholin-4-ylphenyl)amino]carbonyl}amino)phenyl]pyrazolo[1,5-a]pyrimidine-3-carboxylate] | > 10 | 22 |  | 
CCOC(=O)c1cnn2c(-c3cc(NC(=O)c4cccc(C(F)(F)F)c4)ccc3[N+](=O)[O-])ccnc12 [Example 85, ethyl 7-(2-nitro-5-{[3-(trifluoromethyl)benzoyl]amino}phenyl)pyrazolo[1,5-a]pyrimidine-3-carboxylate] | 0.41 | 81 |  | 
CCOC(=O)c1cnn2c(-c3ccc(Cl)c(NC(=O)c4cccc(C(F)(F)F)c4)c3)ccnc12 [Example 86, ethyl 7-(4-chloro-3-{[3-(trifluoromethyl)benzoyl]amino}phenyl)pyrazolo[1,5-a]pyrimidine-3-carboxylate] | > 10 | 18 |  | 
CCOC(=O)c1cnn2c(-c3ccc(N4CC(C)OC(C)C4)c(NC(=O)c4cccc(C(F)(F)F)c4)c3)ccnc12 (centres unmarked) [Example 87, ethyl 7-(4-(2,6-dimethylmorpholin-4-yl)-3-{[3-(trifluoromethyl)benzoyl]amino}phenyl)pyrazolo[1,5-a]pyrimidine-3-carboxylate] | > 10 | 9 |  | 
CCOC(=O)c1cnn2c(-c3ccc(OC)c(NC(=O)c4cccc(C(F)(F)F)c4)c3)ccnc12 [Example 88, ethyl 7-(4-methoxy-3-{[3-(trifluoromethyl)benzoyl]amino}phenyl)pyrazolo[1,5-a]pyrimidine-3-carboxylate] | > 10 | 14 |  | 
CCOC(=O)c1cnn2c(-c3ccc(F)c(NC(=O)c4cccc(C(F)(F)F)c4)c3)ccnc12 [Example 89, ethyl 7-(4-fluoro-3-{[3-(trifluoromethyl)benzoyl]amino}phenyl)pyrazolo[1,5-a]pyrimidine-3-carboxylate] | 2.17 | 65 |  | 
CCOC(=O)c1cnn2c(-c3ccc(OCc4ccccc4)c(NC(=O)c4cccc(C(F)(F)F)c4)c3)ccnc12 [Example 90, ethyl 7-(4-(benzyloxy)-3-{[3-(trifluoromethyl)benzoyl]amino}phenyl)pyrazolo[1,5-a]pyrimidine-3-carboxylate] | > 10 | 4 |  | 
CCOC(=O)c1cnn2c(-c3cc(NC(=O)c4cccc(C(F)(F)F)c4)ccc3F)ccnc12 [Example 91, ethyl 7-(2-fluoro-5-{[3-(trifluoromethyl)benzoyl]amino}phenyl)pyrazolo[1,5-a]pyrimidine-3-carboxylate] | 0.112 | 94 |  | 
CCOC(=O)c1cnn2c(-c3cccc(NC(=O)Cc4cccc(Br)c4)c3)ccnc12 [Example 92, ethyl 7-(3-{[(3-bromophenyl)acetyl]amino}phenyl)pyrazolo[1,5-a]pyrimidine-3-carboxylate] | > 10 | 97 |  | 
CCOC(=O)c1cnn2c(-c3cccc(NC(=O)Cc4cccc(F)c4)c3)ccnc12 [Example 93, ethyl 7-(3-{[(3-fluorophenyl)acetyl]amino}phenyl)pyrazolo[1,5-a]pyrimidine-3-carboxylate] | > 10 | 0 |  | 
CCOC(=O)c1cnn2c(-c3cccc(NC(=O)Cc4cccc(Cl)c4)c3)ccnc12 [Example 94, ethyl 7-(3-{[(3-chlorophenyl)acetyl]amino}phenyl)pyrazolo[1,5-a]pyrimidine-3-carboxylate] | > 10 | 14 |  | 
CCOC(=O)c1cnn2c(-c3cccc(NC(=O)Cc4ccc(Cl)c(Cl)c4)c3)ccnc12 [Example 95, ethyl 7-(3-{[(3,4-dichlorophenyl)acetyl]amino}phenyl)pyrazolo[1,5-a]pyrimidine-3-carboxylate] | > 10 | 39 |  | 
CCOC(=O)c1cnn2c(-c3cccc(NC(=O)Cc4cccc(OC)c4)c3)ccnc12 [Example 96, ethyl 7-(3-{[(3-methoxyphenyl)acetyl]amino}phenyl)pyrazolo[1,5-a]pyrimidine-3-carboxylate] | > 10 | 0 |  | 
CCOC(=O)c1cnn2c(-c3cccc(NC(=O)Cc4cccc(C(F)(F)F)c4)c3)ccnc12 [Example 97, ethyl 7-[3-({[3-(trifluoromethyl)phenyl]acetyl}amino)phenyl]pyrazolo[1,5-a]pyrimidine-3-carboxylate] | 8.6 | 49 |  | 
CCOC(=O)c1cnn2c(-c3cccc(NC(=O)Cc4cccc(C)c4)c3)ccnc12 [Example 98, ethyl 7-(3-{[(3-methylphenyl)acetyl]amino}phenyl)pyrazolo[1,5-a]pyrimidine-3-carboxylate] | > 10 | 15 |  | 
CCOC(=O)c1cnn2c(-c3cccc(NC(=O)Cc4cc(C(F)(F)F)cc(C(F)(F)F)c4)c3)ccnc12 [Example 99, ethyl 7-[3-({[3,5-bis(trifluoromethyl)phenyl]acetyl}amino)phenyl]pyrazolo[1,5-a]pyrimidine-3-carboxylate] | > 10 | 13 |  | 
CCOC(=O)c1cnn2c(-c3cccc(NC(=O)Cc4ccc5c(c4)OCO5)c3)ccnc12 [Example 100, ethyl 7-{3-[(1,3-benzodioxol-5-ylacetyl)amino]phenyl}pyrazolo[1,5-a]pyrimidine-3-carboxylate] | > 10 | 2 |  | 
CCOC(=O)c1cnn2c(-c3cccc(NC(=O)Cc4ccc(OC)c(C)c4)c3)ccnc12 [Example 101, ethyl 7-(3-{[(4-methoxy-3-methylphenyl)acetyl]amino}phenyl)pyrazolo[1,5-a]pyrimidine-3-carboxylate] | > 10 | 0 |  | 
CCOC(=O)c1cnn2c(-c3cccc(NC(=O)Cc4c(F)ccc(F)c4F)c3)ccnc12 [Example 102, ethyl 7-(3-{[(2,3,6-trifluorophenyl)acetyl]amino}phenyl)pyrazolo[1,5-a]pyrimidine-3-carboxylate] | > 10 | 0 |  | 
CCOC(=O)c1cnn2c(-c3cccc(NC(=O)c4ccc(Cl)c(C(F)(F)F)c4)c3)ccnc12 [Example 103, ethyl 7-(3-{[4-chloro-3-(trifluoromethyl)benzoyl]amino}phenyl)pyrazolo[1,5-a]pyrimidine-3-carboxylate] | 2.49 | 59 |  | 
CCOC(=O)c1cnn2c(-c3cccc(NC(=O)c4cc(C(F)(F)F)ccc4C)c3)ccnc12 [Example 104, ethyl 7-(3-{[2-methyl-5-(trifluoromethyl)benzoyl]amino}phenyl)pyrazolo[1,5-a]pyrimidine-3-carboxylate] | 10.1 |  |  | 1
CCOC(=O)c1cnn2c(-c3cc(NC(=O)c4ccc(C)c(C(F)(F)F)c4)ccc3[N+](=O)[O-])ccnc12 [Example 105, ethyl 7-(5-{[4-methyl-3-(trifluoromethyl)benzoyl]amino}-2-nitrophenyl)pyrazolo[1,5-a]pyrimidine-3-carboxylate] | > 10 | 37 |  | 
CCOC(=O)c1cnn2c(-c3ccc(Cl)c(NC(=O)c4ccc(C)c(C(F)(F)F)c4)c3)ccnc12 [Example 106, ethyl 7-(4-chloro-3-{[4-methyl-3-(trifluoromethyl)benzoyl]amino}phenyl)pyrazolo[1,5-a]pyrimidine-3-carboxylate] | > 10 | 2 |  | 
